Measurements published in patent US10160986B2, “Chemoenzymatic synthesis of heparin and heparan sulfate analogs” (The Regents of the University of California, priority 2011, dated 2018).
Like-named read-outs stand apart in the source and are kept apart here.

What was measured:
[1] = test system: T1, MBP-KfiA-His6 (Escherichia coli); experiment: GlcNAcT donor substrate specificity of MBP-KfiA-His6 (Example 12); type: biochemical, E. coli; details: acceptor GlcAβ2AA 1 mM, UDP-sugar 1 mM, MnCl2 10 mM, KfiA 2.8 μg μl^−1, 24 h, 37° C.
T1 construct: made in house; host or cells: E. coli BL21(DE3) co-expressing chaperone plasmid pGro7
Procedure: (§1) PmHS2, KfiA, and related fusion proteins were expressed, purified, and characterized as described in Example 1. Reactions with UDP-sugars were carried out in duplicate at 37° C. in MES (100 mM, pH 6.5) containing UDP-GlcNAc or one of its derivatives (1 mM), GlcAβ2AA (1 mM), MnCl2 (10 mM) and KfiA (2.8 μg μl^−1) or PmHS2 (1.1 μg μl^−1) for 24 h. The reaction mixtures were stopped by adding ice-cold 10% (v/v) acetonitrile to make 100-fold dilutions and the mixtures were analyzed by HPLC as described for the pH profile.
(§2) Substrate specificity of the GlcNAcT activities of MBP-KfiA-his6 and his6-PmHS2. […] The reactions were easily analyzed by high performance liquid chromatography (HPLC) equipped with a fluorescence detector using an excitation wavelength of 315 nm and an emission wavelength of 400 nm to determine the ratio of the fluorescent disaccharide product formed and the fluorescent GlcAβ2AA acceptor.

His6-PmHS2 = experiment: GlcNAcT donor substrate specificity of His6-PmHS2 (Example 12); type: biochemical, Pasteurella multocida; details: acceptor GlcAβ2AA 1 mM, UDP-sugar 1 mM, MnCl2 10 mM, PmHS2 1.1 μg μl^−1, 24 h, 37° C.
Procedure: as §1, §2

PmHS2 = experiment: Small-scale PmHS2 donor substrate test by TLC; type: biochemical, Pasteurella multocida; details: GlcAβ2AAMe 10 mM, donor 15 mM, MgCl2 10 mM, PmHS2 0.5 mg/mL, pH 7.5, 37° C., 12 hr
Procedure: Prior to applying the one-pot three-enzyme system shown in FIG. 16 to the preparative-scale synthesis of the disaccharides, UDP-GlcNAc and derivatives F17-1-F17-12 were tested as donor substrates for PmHS2 in small-scale reaction containing Tris-HCl buffer (100 mM, pH 7.5), GlcAβ2AAMe (10 mM), UDP-GlcNAc or a derivative (15 mM), MgCl2 (10 mM), and PmHS2 (0.5 mg/mL). The reactions were carried out at 37° C. for 12 hr and analyzed by thin layer chromatography (TLC).

NahK_ATCC15697 = NahK_ATCC15697 (Bifidobacterium longum, UniProt B7GN78); experiment: Substrate specificity CE assay, NahK_ATCC15697; type: biochemical, Bifidobacterium infantis; details: substrate 1 mM
Procedure: (§3) Substrates specificity assays. GlcNAc, GalNAc, and their derivatives (1 mM) were used as substrates in the presence of ATP (1 mM) and MgCl2 (5 mM) in a Tris-HCl buffer (pH 8.0, 200 mM) to analyze the substrate specificity of NahKs. Two concentrations (0.75 μM or 15 μM) of each NahK were used and the reactions were allowed to proceed for 10 min (for 0.75 μM NahK) or 30 min (for 15 μM NahK) at 37° C. […] All other conditions were the same as for GlcNAc, GalNAc, and their derivatives.
(§4) Capillary electrophoresis (CE) assays. Based on the detection of ADP and ATP in the reaction mixture by a UV detector, a capillary electrophoresis-based method was developed to directly measure the formation of ADP and N-acetylhexosamine-1-phosphate from ATP and N-acetylhexosamine for characterizing the activities of NahKs.

SpGalK = molecular target: T2, SpGalK (Streptococcus pneumoniae serotype 4, UniProt Q97NZ6); experiment: Kinase reaction monitored by CE (ATP to ADP), SpGalK; type: biochemical, Streptococcus pneumoniae TIGR4; details: monosaccharide 15 mM, ATP 18 mM, 37° C.
T2 construct: made in house
Procedure: Capillary electrophoresis (CE) and thin-layer chromatograph (TLC) assays for kinase reactions. […] These conditions were similar to those used for preparative-scale synthesis. After 1 hr, 4 hr, and 24 hr, an aliquot of 8 μL was withdrawn from each reaction mixture, boiled in a water bath for 5 min and stored at −20° C. until being analyzed by capillary electrophoresis (CE) and TLC. For TLC analysis, 0.5 μL of each sample was directly spotted on TLC plates, developed using suitable developing solvents, and stained with anisaldehyde sugar stain. For CE analysis, 1.5 μL of each sample was diluted into 30 μL and subjected to CE analysis as described above for pH profile studies.

NahK_ATCC55813 = NahK_ATCC55813 (Bifidobacterium longum subsp. longum, UniProt E8MF12, D7V/R348H); type: biochemical; parameters: made in house; host or cells: E. coli BL21(DE3); details: substrate 1 mM
Procedure: as §3, §4

[2] = 0.75 μM enzyme, 10 min at 37° C., ATP 1 mM
[3] = 15 μM enzyme, 30 min at 37° C., ATP 1 mM (Table 2)

Row | Structure (SMILES) | donor substrate for MBP-KfiA-His6 [1] | donor substrate for the α1-4GlcNAcT activity of His6-PmHS2 (His6-PmHS2) | donor substrate for PmHS2 (PmHS2) | other results
1 | O=C(Cc1ccccc1)NC1C(OP(=O)(O)OP(=O)(O)OCC2OC(n3ccc(=O)[nH]c3=O)C(O)C2O)OC(CO)C(O)C1O [Compound 33-5, Uridine 5′-diphospho-2-phenylacetamido-2-deoxy-α-D-glucopyranoside] | not for MBPKfiA-His6 | tolerable donor substrates for His6-PmHS2 | – | –
2 | O=C(Cc1ccc(-c2ccccc2)cc1)N[C@H]1[C@@H](OP(=O)(O)OP(=O)(O)OC[C@H]2O[C@@H](n3ccc(=O)[nH]c3=O)[C@H](O)[C@@H]2O)O[C@H](CO)[C@@H](O)[C@@H]1O [Compound 33-6, Uridine 5′-diphospho-2-(1,1′-biphenyl-4-yl)acetamido-2-deoxy-α-D-glucopyranoside] | not suitable donor substrates | not suitable donor substrates | – | –
3 | CC(=O)NC1C(OP(=O)(O)OP(=O)(O)OCC2OC(n3ccc(=O)[nH]c3=O)C(O)C2O)OC(CNC(=O)Cc2ccccc2)C(O)C1O [Compound 33-14, Uridine 5′-diphospho-2-acetamido-6-phenylacetamido-2,6-dideoxy-α-D-glucopyranoside] | not suitable donor substrates | not suitable donor substrates | – | –
4 | CC(=O)NC1C(OP(=O)(O)OP(=O)(O)OCC2OC(n3ccc(=O)[nH]c3=O)C(O)C2O)OC(CNC(=O)Cc2ccc(-c3ccccc3)cc2)C(O)C1O [Compound 33-15, Uridine 5′-diphospho-2-acetamido-6-(1,1′-biphenyl-4-yl)-acetamido-2,6-dideoxy-α-D-glucopyranoside] | not suitable donor substrates | not suitable donor substrates | – | –
5 | CC(=O)N[C@H]1[C@@H](OP(=O)(O)OP(=O)(O)OC[C@H]2O[C@@H](n3ccc(=O)[nH]c3=O)[C@H](O)[C@@H]2O)O[C@H](CO)[C@H](O)[C@@H]1O [Compound 33-18, uridine 5′-diphospho-2-acetamido-2-deoxy-α-D-glacopyranoside] | not for MBPKfiA-His6 | tolerable donor substrates for His6-PmHS2 | – | –
6 | CC(=O)N[C@@H]1[C@@H](OP(=O)(O)OP(=O)(O)OC[C@H]2O[C@@H](n3ccc(=O)[nH]c3=O)[C@H](O)[C@@H]2O)O[C@H](CO)[C@@H](O)[C@@H]1O [Compound 33-20, Uridine 5′-diphospho-2-acetamido-2-deoxy-α-D-mannopyranoside] | not tolerable substrate | not tolerable substrate | – | –
7 | [N-]=[N+]=N[C@@H]1[C@@H](OP(=O)(O)OP(=O)(O)OC[C@H]2O[C@@H](n3ccc(=O)[nH]c3=O)[C@H](O)[C@@H]2O)O[C@H](CO)[C@@H](O)[C@@H]1O [Compound 33-21, Uridine 5′-diphospho-2-azido-2-deoxy-α-D-mannopyranoside] | not tolerable substrate | not tolerable substrate | – | –
8 | O=c1ccn(C2OC(COP(=O)(O)OP(=O)(O)OC3OC(CO)C(O)C(O)C3F)C(O)C2O)c(=O)[nH]1 [Compound 33-23, Uridine 5′-diphospho-2-fluoro-2-deoxy-α-D-mannopyranoside] | not tolerable substrate | not tolerable substrate | – | –
9 | NC1C(OP(=O)(O)OP(=O)(O)OCC2OC(n3ccc(=O)[nH]c3=O)C(O)C2O)OC(CO)C(O)C1O [Compound F17-5, Uridine 5′-diphospho-2-amino-2-deoxy-α-D-glucopyranoside] | not acceptable donor substrates | not acceptable donor substrates | did not serve as donor substrates | –
10 | [N-]=[N+]=N[C@H]1[C@@H](OP(=O)(O)OP(=O)(O)OC[C@H]2O[C@@H](n3ccc(=O)[nH]c3=O)[C@H](O)[C@@H]2O)O[C@H](CO)[C@@H](O)[C@@H]1O [Compound F17-6, Uridine 5′-diphospho-2-azido-2-deoxy-α-D-glucopyranoside] | not acceptable donor substrates | not acceptable donor substrates | did not serve as donor substrates | –
11 | O=c1ccn([C@@H]2O[C@H](COP(=O)(O)OP(=O)(O)O[C@H]3O[C@H](CO)[C@@H](O)[C@H](O)[C@H]3NS(=O)(=O)O)[C@@H](O)[C@H]2O)c(=O)[nH]1 [Compound F17-7, Uridine 5′-diphospho-2-sulfoamino-2-deoxy-α-D-glucopyranoside] | – | block the activities of both | did not serve as donor substrates | –
12 | CC(=O)N[C@H]1[C@@H](OP(=O)(O)OP(=O)(O)OC[C@H]2O[C@@H](n3ccc(=O)[nH]c3=O)[C@H](O)[C@@H]2O)O[C@H](CNC(=O)CO)[C@@H](O)[C@@H]1O [Compound F17-9, Uridine 5′-diphospho-2-acetamido-6-hydroxyacetamido-2,6-dideoxy-α-D-glucopyranoside] | not for MBPKfiA-His6 | tolerable donor substrates for His6-PmHS2 | tolerable donor substrates | –
13 | CC(=O)NC1C(OP(=O)(O)OP(=O)(O)OCC2OC(n3ccc(=O)[nH]c3=O)C(O)C2O)OC(CN)C(O)C1O [Compound F17-10, Uridine 5′-diphospho-2-acetamido-6-amino-2,6-dideoxy-α-D-glucopyranoside] | not for MBPKfiA-His6 | tolerable donor substrates for His6-PmHS2 | did not serve as donor substrates | –
14 | CC(=O)NC1C(OP(=O)(O)OP(=O)(O)OCC2OC(n3ccc(=O)[nH]c3=O)C(O)C2O)OC(CNC(=O)CN=[N+]=[N-])C(O)C1O [Compound F17-11, Uridine 5′-diphospho-2-acetamido-6-azidoacetamido-2,6-dideoxy-α-D-glucopyranoside] | not for MBPKfiA-His6 | tolerable donor substrates for His6-PmHS2 | did not serve as donor substrates | –
15 | CC(=O)N[C@H]1[C@@H](OP(=O)(O)OP(=O)(O)OC[C@H]2O[C@@H](n3ccc(=O)[nH]c3=O)[C@H](O)[C@@H]2O)O[C@H](COS(=O)(=O)O)[C@@H](O)[C@@H]1O [Compound F17-12, Uridine 5′-diphospho-2-acetamido-2-deoxy-6-O-sulfo-α-D-glucopyranoside] | – | block the activities of both | did not serve as donor substrates | –
16 | [N-]=[N+]=NC1C(O)OC(CO)[C@H](O)C1O (stereo partly drawn) [GalN3] | – | – | – | Percentage Conversion (NahK_ATCC15697; [2]): 0%; Percentage Conversion (NahK_ATCC15697; [3]): 7.6 ± 0.1%; ATP Conversion (SpGalK; 1 hr): 45.7%; ATP Conversion (SpGalK; 4 hr): 79.0%; ATP Conversion (SpGalK; 24 hr): 81.2%; Percentage Conversion (NahK_ATCC55813; [2]): 0%; Percentage Conversion (NahK_ATCC55813; [3]): 4.3 ± 0.1%
